Experimental data published in US20050220837A1, “Antimicrobial hyaluronic acid coatings for orthopedic implants” (priority 2003, published 2005).

Tested on: hTERT cells
Assay: cytotoxicity of chlorhexidine on viability/adhesion of hTERT cells (Calcein AM / Ethidium homodimer)
Assay type: cell-based, human
Conditions: 24 h
Experimental: A separate experiment was carried out to measure the cytotoxicity of different chlorhexidine concentrations on the viability/adhesion of hTERT cells. hTERT cells were cultured as described above onto Thermanox discs in four well plates, but the DMEM with 10% FCS was inoculated with 0.1%, 1% or 10% chlorhexidine. Two control discs were also included containing just DMEM with 10% FCS, one disc was in the same plate as the chlorhexidine samples and the other in a separate four well plate. Plates were incubated at 37° C. for 24 h, before the media was removed and 1 ml DMEM (no FCS) containing 1 μl/ml Calcein AM (reacts with live cells) and 1 μl/ml Ethidium homodimer (reacts with dead cells) was added. The plates were incubated at 37° C. in the dark for a further 30 minutes, then the Thermanox discs were imaged using a Zeiss Epifluorescence microscope. Live well spread cells were seen on the sample not exposed to chlorhexidine, while dead cells were observed on the surface cultured in the same plate as samples exposed to chlorhexidine.

[H]/N=C(\N/C(=N/[H])NCCCCCCNC(=N)NC(=N)Nc1ccc(Cl)cc1)Nc1ccc(Cl)cc1 [chlorhexidine]
hTERT cells on Thermanox disc after exposure (0.1% chlorhexidine in DMEM with 10% FCS): No cells were seen
hTERT cells on Thermanox disc after exposure (1% chlorhexidine in DMEM with 10% FCS): No cells were seen
